# Like-named read-outs stand apart in the source and are kept apart here.
# What was measured:
# [1] = system: SK-MEL-2/Luc-MDM2 cells (MDM2-Luc exon-skipping reporter); assay: cell-based MDM2-Luc exon-skipping reporter assay; conditions: for activity in the MDM2-Luc assay: at 10 μM; for MDM2/Luc: luciferase activation vs DMSO control, average of three experiments; for MDM2-Luc activity: result in words, no concentration stated
# [2] = system: MDM2 alternate splicing in Rh-18 cells; assay: Rh-18 MDM2 RT-PCR gel-based assay (orthogonal secondary assay); format: cell-based; conditions: 10 μM, 8 h
# Procedure: These hits were then subjected to a confirmatory assay in the Rh-18 MDM2 RT-PCR gel-based assay at a concentration of 10 μM.
# Referring to FIG. 6, cells were exposed to 0.5% DMSO, 0.2 μM sudemycin D6 or […] CGP-74514A for 8 h. Total RNA was extracted by RNeasy Mini Kit (Qiagen). High capacity RNA-to-cDNA kit (Life technologies) was used to convert the RNA to cDNA.
# Referring to FIG. 7, cells were exposed to 0.5% DMSO (lane 1), 1 μM sudemycin D6 (lane 2), 10 μM Compound 14 (lane 3), and 10 μM Compound 15 (lane 4) for 8 h. The total RNA was extracted by RNeasy Mini Kit (Qiagen). High capacity RNA-to-cDNA kit (Life technologies) was used to convert the RNA to cDNA. […] Ubiquitin transcripts (165 bp) in the same cells were used as a control (Fan et al. (2011) ACS Chem. Biol. 6: 582-9).
# CDK4/cyclinD3(h) = target: T1, CDK4/cyclinD3(h) (Homo sapiens, UniProt P11802); assay: radiometric protein kinase assay, CDK4; format: biochemical; conditions: enzyme inhibition, ATP 20 μM
# T1 construct: purchased Eurofins, Dundee, Scotland
# Procedure: (§1) Enzymatic biochemical activities were evaluated in radiometric protein kinase assays (Eurofins, Dundee, Scotland). Kinases are incubated with buffer, substrate and [γ-^33P]-ATP (specific activity approx. 500 cpm/pmol, concentration as required). The reaction is initiated by the addition of the MgATP mix. After incubation for 40 minutes at room temperature, the reaction is stopped by the addition of 3% phosphoric acid solution. 10 μL of the reaction is then spotted onto a P30 filtermat and washed three times for 5 minutes in 75 mM phosphoric acid and once in methanol prior to drying and scintillation counting.
# (§2) All compounds are prepared to 50× final assay concentration in 100% DMSO. Positive control wells contain all components of the reaction with 2% DMSO. Blank wells contain all components of the reaction, with a reference inhibitor replacing the compound of interest. Each kinase is assigned a standard assay concentration of ATP within 20 μM of its apparent KM. Compounds were screened at 1 μM in duplicate or tested at 10 concentrations at half log dilution starting from 10 μM in singlicate. Dose response curves were fitted with four parameter logistic curve to obtain IC50 values. The average coefficient of variation (CV) of the conducted assay is 4.4%.
# CLK4(h) = target: T2, CLK4(h) (Homo sapiens, UniProt Q9HAZ1); assay: radiometric protein kinase assay, CLK4; format: biochemical; conditions: enzyme inhibition, ATP 10 μM
# T2 construct: purchased Eurofins, Dundee, Scotland
# Procedure: as §1, §2
# CDK1/cyclinB(h) = target: T3, CDK1/cyclinB(h) (Homo sapiens, UniProt P06493); assay: radiometric protein kinase assay, CDK1; format: biochemical; conditions: enzyme inhibition, ATP 45 μM
# T3 construct: purchased Eurofins, Dundee, Scotland
# Procedure: as §1, §2
# CLK1(h) = target: T4, CLK1(h) (Homo sapiens, UniProt P49759); assay: radiometric protein kinase assay, CLK1; format: biochemical; conditions: enzyme inhibition, radiometric, ATP 10 μM; read-out: IC50 (nM) CLK1
# T4 construct: purchased Eurofins, Dundee, Scotland
# Procedure: as §1, §2
# CLK3(h) = target: T5, CLK3(h) (Homo sapiens, UniProt P49761); assay: radiometric protein kinase assay, CLK3; format: biochemical
# T5 construct: purchased Eurofins, Dundee, Scotland
# Procedure: as §1, §2
# CLK2(h) = target: T6, CLK2(h) (Homo sapiens, UniProt P49760); assay: radiometric protein kinase assay, CLK2; format: biochemical; conditions: enzyme inhibition, ATP 10 μM
# T6 construct: purchased Eurofins, Dundee, Scotland
# Procedure: as §1, §2
# CDK6/cyclinD3(h) = target: T7, CDK6/cyclinD3(h) (Homo sapiens, UniProt Q00534); assay: radiometric protein kinase assay, CDK6; format: biochemical; conditions: enzyme inhibition, ATP 20 μM
# T7 construct: purchased Eurofins, Dundee, Scotland
# Procedure: as §1, §2
# [3] = enzyme inhibition, radiometric, ATP 90 μM, read-out: IC50 (nM) CLK3
# T4 sequence (P49759 whole entry): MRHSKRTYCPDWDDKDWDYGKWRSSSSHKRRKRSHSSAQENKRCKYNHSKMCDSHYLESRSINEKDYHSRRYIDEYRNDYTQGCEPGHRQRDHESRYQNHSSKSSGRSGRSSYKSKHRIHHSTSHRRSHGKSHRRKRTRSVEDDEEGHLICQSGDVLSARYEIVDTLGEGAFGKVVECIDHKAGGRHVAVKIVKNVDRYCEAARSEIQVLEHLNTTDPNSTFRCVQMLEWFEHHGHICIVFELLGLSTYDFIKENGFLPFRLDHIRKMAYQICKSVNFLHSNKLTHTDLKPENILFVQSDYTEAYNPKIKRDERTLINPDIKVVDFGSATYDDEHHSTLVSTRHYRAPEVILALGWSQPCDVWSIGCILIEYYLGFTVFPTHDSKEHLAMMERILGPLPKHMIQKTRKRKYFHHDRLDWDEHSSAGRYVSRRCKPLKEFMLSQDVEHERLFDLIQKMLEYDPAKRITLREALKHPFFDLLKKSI
# T2 sequence (Q9HAZ1 whole entry): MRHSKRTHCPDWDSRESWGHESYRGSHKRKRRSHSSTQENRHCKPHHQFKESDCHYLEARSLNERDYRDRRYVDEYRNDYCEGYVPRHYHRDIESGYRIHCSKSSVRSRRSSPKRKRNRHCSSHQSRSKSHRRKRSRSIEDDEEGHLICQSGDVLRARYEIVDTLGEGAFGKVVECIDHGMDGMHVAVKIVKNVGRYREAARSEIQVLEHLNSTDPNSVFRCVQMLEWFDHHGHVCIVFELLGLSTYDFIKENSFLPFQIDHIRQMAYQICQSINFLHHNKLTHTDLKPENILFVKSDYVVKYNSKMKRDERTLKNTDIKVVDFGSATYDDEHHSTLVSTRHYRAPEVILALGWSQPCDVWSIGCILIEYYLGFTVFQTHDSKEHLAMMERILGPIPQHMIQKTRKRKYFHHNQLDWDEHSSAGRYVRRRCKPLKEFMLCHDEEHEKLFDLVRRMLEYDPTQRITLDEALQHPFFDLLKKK
# T6 sequence (P49760 whole entry): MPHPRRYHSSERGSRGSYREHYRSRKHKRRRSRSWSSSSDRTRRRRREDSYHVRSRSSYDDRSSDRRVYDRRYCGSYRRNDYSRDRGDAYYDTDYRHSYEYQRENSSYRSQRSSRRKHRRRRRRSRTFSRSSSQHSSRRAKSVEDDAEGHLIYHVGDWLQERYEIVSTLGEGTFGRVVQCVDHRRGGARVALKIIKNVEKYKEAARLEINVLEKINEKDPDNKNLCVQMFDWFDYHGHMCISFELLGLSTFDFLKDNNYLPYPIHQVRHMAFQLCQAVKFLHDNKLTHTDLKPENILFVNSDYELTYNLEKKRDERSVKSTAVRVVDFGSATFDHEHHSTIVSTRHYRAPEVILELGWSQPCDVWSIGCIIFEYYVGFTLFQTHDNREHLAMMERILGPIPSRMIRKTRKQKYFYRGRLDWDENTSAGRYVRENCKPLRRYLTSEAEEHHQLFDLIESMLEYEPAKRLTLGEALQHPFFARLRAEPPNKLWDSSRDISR
# T5 sequence (P49761 whole entry): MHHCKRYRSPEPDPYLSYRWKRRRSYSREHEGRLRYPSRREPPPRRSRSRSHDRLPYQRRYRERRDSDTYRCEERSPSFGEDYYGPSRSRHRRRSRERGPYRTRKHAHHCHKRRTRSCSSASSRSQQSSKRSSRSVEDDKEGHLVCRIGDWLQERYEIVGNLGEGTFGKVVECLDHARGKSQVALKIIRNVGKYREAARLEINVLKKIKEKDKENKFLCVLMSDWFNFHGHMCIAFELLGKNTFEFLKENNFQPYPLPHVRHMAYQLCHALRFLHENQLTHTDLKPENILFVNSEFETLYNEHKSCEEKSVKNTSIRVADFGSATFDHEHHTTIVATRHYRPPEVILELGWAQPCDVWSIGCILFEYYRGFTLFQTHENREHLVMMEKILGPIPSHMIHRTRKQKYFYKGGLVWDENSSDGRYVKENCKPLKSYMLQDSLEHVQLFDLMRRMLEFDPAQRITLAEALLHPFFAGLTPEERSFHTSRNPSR
# T1 sequence (P11802 whole entry): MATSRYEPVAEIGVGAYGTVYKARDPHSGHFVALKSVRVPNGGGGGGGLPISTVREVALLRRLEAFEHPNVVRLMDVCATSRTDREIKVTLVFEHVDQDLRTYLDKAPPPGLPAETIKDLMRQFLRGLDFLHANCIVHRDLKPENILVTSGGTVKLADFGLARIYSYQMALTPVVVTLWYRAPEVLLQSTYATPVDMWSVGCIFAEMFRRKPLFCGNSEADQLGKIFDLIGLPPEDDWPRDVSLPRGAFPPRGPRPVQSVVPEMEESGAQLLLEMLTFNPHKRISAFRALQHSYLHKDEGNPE
# T1 sequence (P30281 whole entry partner): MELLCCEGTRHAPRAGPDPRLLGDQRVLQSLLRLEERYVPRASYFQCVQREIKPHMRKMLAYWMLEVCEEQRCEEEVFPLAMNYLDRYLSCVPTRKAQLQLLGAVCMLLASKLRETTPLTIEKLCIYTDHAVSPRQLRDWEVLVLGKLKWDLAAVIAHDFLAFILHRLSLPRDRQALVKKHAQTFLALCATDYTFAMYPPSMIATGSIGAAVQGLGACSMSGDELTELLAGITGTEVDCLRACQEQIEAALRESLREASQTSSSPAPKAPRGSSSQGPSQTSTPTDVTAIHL
# T7 sequence (Q00534 whole entry): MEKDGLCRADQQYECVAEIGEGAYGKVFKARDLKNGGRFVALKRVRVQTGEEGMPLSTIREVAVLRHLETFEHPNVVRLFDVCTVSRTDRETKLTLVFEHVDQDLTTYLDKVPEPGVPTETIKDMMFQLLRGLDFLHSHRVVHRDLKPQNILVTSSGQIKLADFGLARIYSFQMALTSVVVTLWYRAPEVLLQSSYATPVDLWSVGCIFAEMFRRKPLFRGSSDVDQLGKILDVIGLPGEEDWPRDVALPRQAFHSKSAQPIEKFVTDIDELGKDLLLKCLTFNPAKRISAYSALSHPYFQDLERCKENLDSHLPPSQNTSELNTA
# T7 sequence (P30281 whole entry partner): as the sequence (P30281 whole entry partner) above
# T3 sequence (P06493 whole entry): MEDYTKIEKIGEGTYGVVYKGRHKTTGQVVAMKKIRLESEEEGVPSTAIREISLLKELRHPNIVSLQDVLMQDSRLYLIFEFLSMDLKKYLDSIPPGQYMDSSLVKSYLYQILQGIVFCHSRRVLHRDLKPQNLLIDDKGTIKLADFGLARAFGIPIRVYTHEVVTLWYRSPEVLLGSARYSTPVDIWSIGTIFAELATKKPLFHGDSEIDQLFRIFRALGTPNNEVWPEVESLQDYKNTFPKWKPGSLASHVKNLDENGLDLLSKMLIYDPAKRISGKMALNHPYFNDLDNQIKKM
# T3 sequence (P14635 whole entry partner): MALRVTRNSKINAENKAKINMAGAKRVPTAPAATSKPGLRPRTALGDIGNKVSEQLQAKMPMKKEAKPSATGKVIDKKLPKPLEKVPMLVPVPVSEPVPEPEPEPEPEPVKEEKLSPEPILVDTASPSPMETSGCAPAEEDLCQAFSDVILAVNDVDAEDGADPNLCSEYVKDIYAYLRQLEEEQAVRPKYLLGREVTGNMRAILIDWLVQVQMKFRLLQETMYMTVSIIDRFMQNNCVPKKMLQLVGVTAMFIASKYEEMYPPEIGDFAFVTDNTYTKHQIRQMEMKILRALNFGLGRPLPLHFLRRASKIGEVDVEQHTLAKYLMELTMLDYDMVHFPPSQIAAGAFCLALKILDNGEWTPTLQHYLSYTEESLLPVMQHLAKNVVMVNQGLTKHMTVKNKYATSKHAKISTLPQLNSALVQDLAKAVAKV
smiles,measurement,setting,value
"CC(C)n1ccc2c(Nc3cccc(Cl)c3)nc(NC3CCCCC3N)nc21 (racemic) [Compound 11, Racemic-N^2-Cis((2-Aminocyclohexyl)-N^4-(3-Chlorophenyl)-7-Isopropyl-7H-Pyrrolo[2,3-D]Pyrimidine-2,4-Diamine]",activity in the MDM2-Luc assay,[1],completely abrogated all activity
"CCn1cnc2c(Nc3cccc(Cl)c3)nc(NC3CCCCC3NC(C)=O)nc21 (racemic) [Compound 12, Racemic N-Cis(2-((6-((3-Chlorophenyl)Amino)-9-Ethyl-9H-Purin-2-Yl)Amino)Cyclohexyl) Acetamide]",activity in the MDM2-Luc assay,[1],completely abrogated all activity
"CC(C)[C@H](CO)Nc1nc(Nc2cc(N)cc(Cl)c2)c2ncn(C(C)C)c2n1 [Aminopurvalanol A, reference compound]",activity in the Rh-18 MDM2 RT-PCR gel-based confirmatory assay,[2],clear activity
"CCn1cnc2c(Nc3cccc(Cl)c3)nc(N[C@@H]3CCCC[C@H]3N)nc21 [Compound 5, N-((1R,2R)-2-Aminocyclohexyl)-V-(3-Chlorophenyl)-9-Ethyl-9H-Purine-2,6-Diamine]",IC50,CDK4/cyclinD3(h),> 1000 nM
same,MDM2/Luc,[1],Active
same,IC50,CLK4(h),> 1000 nM
same,IC50,CDK1/cyclinB(h),546 nM
same,IC50,CLK1(h),868 nM
same,IC50,CLK3(h),> 1000 nM
same,IC50,CLK2(h),498 nM
same,IC50,CDK6/cyclinD3(h),> 1000 nM
"CCn1cnc2c(Nc3cccc(Cl)c3)nc(N[C@H]3CCCC[C@@H]3N)nc21 [Compound 6, N^2-((1 S,2S)-2-Aminocyclohexyl)-V-(3-Chlorophenyl)-9-Ethyl-9H-Purine-2,6-Diamine]",IC50,CDK4/cyclinD3(h),> 1000 nM
same,MDM2/Luc,[1],Active
same,IC50,CLK4(h),498 nM
same,IC50,CDK1/cyclinB(h),> 1000 nM
same,IC50,CLK1(h),371 nM
same,IC50,CLK3(h),> 1000 nM
same,IC50,CLK2(h),190 nM
same,IC50,CDK6/cyclinD3(h),> 1000 nM
"CC(C)n1cnc2c(Nc3cccc(Cl)c3)nc(N[C@@H]3CCCC[C@H]3N)nc21 [Compound 7, N-((1R,2R)-2-Aminocyclohexyl)-N^6-(3-Chlorophenyl)-9-Isopropyl-9H-Purine-2,6-Diamine]",IC50,CDK4/cyclinD3(h),> 1000 nM
same,MDM2/Luc,[1],Active
same,IC50,CLK4(h),634 nM
same,IC50,CDK1/cyclinB(h),> 1000 nM
same,IC50,CLK1(h),400 nM
same,IC50,CLK3(h); [3],> 1000 nM
same,IC50,CLK2(h),120 nM
same,IC50,CDK6/cyclinD3(h),> 1000 nM
"CC(C)n1cnc2c(Nc3cccc(Cl)c3)nc(N[C@H]3CCCC[C@H]3N)nc21 [Compound 10, N^2-((1S,2R)-2-Aminocyclohexyl)-N^6-(3-Chlorophenyl)-9-Isopropyl-9H-Purine-2,6-Diamine]",IC50,CDK4/cyclinD3(h),> 1000 nM
same,luciferase response (Luc fold) in the MDM2-Luc reporter assay,[1]; compared with less potent CLK inhibitors of the series,stronger luciferase response
same,MDM2/Luc,[1],Active
same,IC50,CLK4(h),70 nM
same,IC50,CDK1/cyclinB(h),> 1000 nM
same,IC50,CLK1(h),74 nM
same,IC50,CLK3(h); [3],> 1000 nM
same,IC50,CLK2(h),26 nM
same,IC50,CDK6/cyclinD3(h),> 1000 nM
"COCCNc1nc(Nc2cccc(Cl)c2)c2ncn(C(C)C)c2n1 [Compound 13, N^6-(3-Chlorophenyl)-9-Isopropyl-N^2-(2-Methoxyethyl)-9H-Purine-2,6-Diamine]",MDM2-Luc activity,[1],dramatically reduced activity
"CC(C)n1cnc2c(Nc3cc(N)cc(Cl)c3)nc(N[C@@H]3CCCC[C@@H]3N)nc21 [Compound 16, 1V-(3-Amino-5-Chlorophenyl)-N-((1R,2S)-2-Aminocyclohexyl)-9-Isopropyl-9H-Purine-2,6-Diamine]",IC50,CLK4(h),25 nM
same,IC50,CLK1(h),17 nM
same,IC50,CLK2(h),6 nM
"CC(C)n1cnc2c(Nc3cc(N)cc(Cl)c3)nc(N[C@H]3CCCC[C@H]3N)nc21 [Compound 17, N^6-(3-Amino-5-Chlorophenyl)-N^2-((1 S,2R)-2-Aminocyclohexyl)-9-Isopropyl-9H-Purine-2,6-Diamine]",IC50,CDK4/cyclinD3(h),> 1000 nM
same,IC50,CLK4(h),28 nM
same,IC50,CDK1/cyclinB(h),> 1000 nM
same,IC50,CLK1(h),21 nM
same,IC50,CLK3(h); [3],> 1000 nM
same,IC50,CLK2(h),26 nM
same,IC50,CDK6/cyclinD3(h),> 1000 nM
"CC(=O)Nc1cc(Cl)cc(Nc2nc(N[C@@H]3CCCC[C@@H]3N)nc3c2ncn3C(C)C)c1 [Compound 18, N-(3-((2-(((1R,2S)-2-Aminocyclohexyl)Amino)-9-Isopropyl-9H-Purin-6-Yl)Amino)-5-Chlorophenyl)Acetamide]",IC50,CDK4/cyclinD3(h),611 nM
same,IC50,CLK4(h),30 nM
same,IC50,CDK1/cyclinB(h),> 1000 nM
same,IC50,CLK1(h),19 nM
same,IC50,CLK3(h); [3],> 1000 nM
same,IC50,CLK2(h),7 nM
same,IC50,CDK6/cyclinD3(h),> 1000 nM
"CC(=O)Nc1cc(Cl)cc(Nc2nc(N[C@H]3CCCC[C@H]3N)nc3c2ncn3C(C)C)c1 [Compound 19, N-(3-((2-(((1S,2R)-2-Aminocyclohexyl)Amino)-9-Isopropyl-9H-Purin-6-Yl)Amino)-5-Chlorophenyl)Acetamide]",IC50,CDK4/cyclinD3(h),> 1000 nM
same,IC50,CLK4(h),31 nM
same,IC50,CDK1/cyclinB(h),> 1000 nM
same,IC50,CLK1(h),26 nM
same,IC50,CLK3(h); [3],> 1000 nM
same,IC50,CLK2(h),17 nM
same,IC50,CDK6/cyclinD3(h),> 1000 nM
"CC(C)n1cnc2c(Nc3cc(N)cc(Cl)c3)nc(N[C@H]3CCCC[C@@H]3N)nc21 [Compound 20, 1V-(3-Amino-5-Chlorophenyl)-M-((1 S,2S)-2-Aminocyclohexyl)-9-Isopropyl-9H-Purine-2,6-Diamine]",IC50,CDK4/cyclinD3(h),> 1000 nM
same,IC50,CLK4(h),124 nM
same,IC50,CDK1/cyclinB(h),> 1000 nM
same,IC50,CLK1(h),56 nM
same,IC50,CLK3(h); [3],> 1000 nM
same,IC50,CLK2(h),14 nM
same,IC50,CDK6/cyclinD3(h),> 1000 nM
"CC(C)n1cnc2c(Nc3cc(N)cc(Cl)c3)nc(N[C@@H]3CCCC[C@H]3N)nc21 [Compound 21, N^6-(3-Amino-5-Chlorophenyl)-N-((1R,2R)-2-Aminocyclohexyl)-9-Isopropyl-9H-Purine-2,6-Diamine]",IC50,CDK4/cyclinD3(h),> 1000 nM
same,IC50,CLK4(h),648 nM
same,IC50,CDK1/cyclinB(h),> 1000 nM
same,IC50,CLK1(h),274 nM
same,IC50,CLK3(h); [3],> 1000 nM
same,IC50,CLK2(h),163 nM
same,IC50,CDK6/cyclinD3(h),> 1000 nM
"CC(C)n1cnc2c(Nc3cc(N)cc(Cl)c3)nc(N[C@H]3CCCNC3)nc21 [Compound 22, (S)—N^6-(3-Amino-5-Chlorophenyl)-9-Isopropyl-N^2-(Piperidin-3-Yl)-9H-Purine-2,6-Diamine]",IC50,CDK4/cyclinD3(h),> 1000 nM
same,IC50,CLK4(h),61 nM
same,IC50,CDK1/cyclinB(h),> 1000 nM
same,IC50,CLK1(h),31 nM
same,IC50,CLK3(h); [3],> 1000 nM
same,IC50,CLK2(h),26 nM
same,IC50,CDK6/cyclinD3(h),> 1000 nM
"CC(C)n1cnc2c(Nc3cc(N)cc(Cl)c3)nc(N[C@@H]3CCCNC3)nc21 [Compound 23, (R)—N^6-(3-Amino-5-Chlorophenyl)-9-Isopropyl-N^2-(Piperidin-3-Yl)-9H-Purine-2,6-Diamine]",IC50,CDK4/cyclinD3(h),> 1000 nM
same,IC50,CLK4(h),102 nM
same,IC50,CDK1/cyclinB(h),> 1000 nM
same,IC50,CLK1(h),66 nM
same,IC50,CLK3(h); [3],> 1000 nM
same,IC50,CLK2(h),34 nM
same,IC50,CDK6/cyclinD3(h),> 1000 nM
"CC(C)n1cnc2c(Nc3cc(N)cc(Cl)c3)nc(N[C@H]3CCNC3)nc21 [Compound 24, (S)—N^6-(3-Amino-5-Chlorophenyl)-9-Isopropyl-N^2-(Pyrrolidin-3-Yl)-9-Purine-2,6-Diamine]",IC50,CDK4/cyclinD3(h),> 1000 nM
same,IC50,CLK4(h),77 nM
same,IC50,CDK1/cyclinB(h),> 1000 nM
same,IC50,CLK1(h),71 nM
same,IC50,CLK3(h); [3],> 1000 nM
same,IC50,CLK2(h),28 nM
same,IC50,CDK6/cyclinD3(h),> 1000 nM
"CC(C)n1cnc2c(Nc3cc(N)cc(Cl)c3)nc(N[C@@H]3CCNC3)nc21 [Compound 25, (R)—N^6-(3-Amino-5-Chlorophenyl)-9-Isopropyl-N^2-(Pyrrolidin-3-Yl)-9H-Purine-2,6-Diamine]",IC50,CDK4/cyclinD3(h),> 1000 nM
same,IC50,CLK4(h),299 nM
same,IC50,CDK1/cyclinB(h),> 1000 nM
same,IC50,CLK1(h),118 nM
same,IC50,CLK3(h); [3],> 1000 nM
same,IC50,CLK2(h),92 nM
same,IC50,CDK6/cyclinD3(h),> 1000 nM
"CCOC(=O)c1c(/C(C#N)=C\N)c2ccc(Cl)c(Cl)c2n1C [KH-CB19, reference compound]",MDM2-Luc activity,[1],modest activity
"O=C(Nc1cc(C(F)(F)F)ccc1N1CCCCC1)c1ccncc1 [SRPIN340, reference compound]",activity in the MDM2-Luc assay,[1],inactive
"CCc1cnn2c(NCc3ccc[n+]([O-])c3)cc(N3CCCC[C@H]3CCO)nc12 [dinaciclib, reference compound]",activity in the MDM2-Luc assay,[1],inactive

# From US10722515B2, “Dual CLK/CDK1 inhibitors for cancer treatment” (SRI INTERNATIONAL, priority 2016, dated 2020)
